PMC8375385, “In vitro Effect of Harmine Alkaloid and Its N-Methyl Derivatives Against Toxoplasma gondii” (Frontiers in Microbiology, 2021)
“Also recorded” adds a separate entry of the source. Read-outs that look alike come from different tables or passages of the source.

Tests used:
T. gondii RH strain = test system: T. gondii RH strain; parameters: method as in not given; conditions: footnote text not given, ref not given, cited from earlier work
[1] = MTT cytotoxicity on Vero host cells, 2 days; conditions: African green monkey (Cercopithecus aethiops), CC50, Vero cells, 2 days of treatment (Table 1 footnote a)
[2] = test system: T. gondii RH RFP tachyzoites; test: Lytic cycle growth assay (RFP fluorescence); format: cell-based, Toxoplasma gondii; conditions: for IC50: Toxoplasma gondii, Fibroblast; for selectivity index (SI): CC50 hTERT 4 days / IC50 at 4 d.p.i.; for effect on tachyzoite growth: up to 10 μM, 3 d.p.i.
[3] = test system: T. gondii RH Δhxgprt tachyzoites; test: Tachyzoite cell cycle analysis by flow cytometry; format: cell-based, Toxoplasma gondii; conditions: infected hTERT fibroblasts, 2 days; 1–3 at 7.5 μM, SDZ at 500 μM
Procedure: Tachyzoites of the RH Δhxgprt strain (3 × 10^6) were added to hTERT cell monolayers grown into six-well plates. After invasion was allowed, the medium was changed, and infected cells were incubated for 2 days with 1, 2, and 3 (7.5 μM); SDZ (500 μM, positive control); or the vehicle (negative control), diluted in supplemented DMEM. Then, cells were detached using trypsin/EDTA solution and gently ruptured by successive passages through 27- and 30-gauge needles in order to obtain free parasites. Samples were centrifuged (2,000 rpm, 10 min), washed with PBS, fixed with 70% ethanol, and stored for 1 day at −20°C. Afterward, samples were processed and stained as described previously ([Munera Lopez et al., 2019]). At least 10,000 tachyzoites per sample were analyzed by flow cytometry measurements, carried out in a BD FACSCalibur equipment. Results were analyzed using FlowJo software 7.6. All assays were performed in duplicates, in two independent experiments.

ctDNA = conditions: pH 7.4, cited from earlier work
topoisomerase I = test system: topoisomerase I; parameters: method as in Cao et al., 2005; conditions: cell-free system, ref Cao et al., 2005, cited from earlier work
[4] = test system: T. gondii RH RFP tachyzoites; test: Time of removal assay; format: cell-based, Toxoplasma gondii; conditions: for growth recovery after drug removal: followed up to 15 d.p.i.
Vero cells = test: MTT cytotoxicity on Vero host cells, 2 days; conditions: Vero cells, 2 days of treatment (Table 1 footnote a)
[5] = test system: T. gondii RH Δhxgprt tachyzoites; test: Replication assay (tachyzoites per PV); format: cell-based, Toxoplasma gondii; conditions: for increase of % PV with one parasite (% PV (1P)) vs control: 1-h-pretreated extracellular tachyzoites, 5–50 μM, 1 day of incubation without drug; for % PV (1P): intracellular tachyzoites in Vero cells, 7.5 μM, 2 days of incubation
Procedure: The effect of βCs on the replication process was evaluated on both extracellular and intracellular treated tachyzoites of the strain RH Δhxgprt. In the first case, the procedure followed was described above (see invasion assay), but after allowing the invasion, samples were washed with PBS and incubated for 1 day with supplemented DMEM (without drugs), before fixing and staining. To investigate βCs’ action on intracellular parasites, confluent Vero cells grown in 24-well plates were infected with 2 × 10^6 tachyzoites per well and treated for 2 days with different concentrations of the investigated drugs or the vehicle (DMSO) as negative control. Finally, they were fixed and immunolabeled as detailed previously. The number of tachyzoites per PV was analyzed under a microscope with × 63 magnification. At least 100 PVs selected at random were scored in triplicates, per compound dose, in two independent sets of experiments. Results are depicted as the mean percentage of PVs (% PV) that contained a geometric progression 2^n (with “n” being a natural number ≥ 0) of tachyzoites per PV ± SEM.

T. gondii γH2A.X = test: Western blot of γH2A.X in intracellular tachyzoites; format: cell-based, Toxoplasma gondii; conditions: 2 days; for γH2A.X levels: intracellular tachyzoites, CPT 10 μM or 3 7.5 μM alone
Procedure: Monolayers of hTERT cells grown in 12-well plates were infected with 5 × 10^6 tachyzoites of the RH Δhxgprt strain. After the invasion process, cells were washed with PBS and incubated with 3 (7.5 μM), CPT (10 μM), 3 (7.5 μM) plus CPT (10 μM), or the vehicle (DMSO), diluted in supplemented DMEM for 2 days. Then, infected cells were harvested by trypsinization, centrifuged, resuspended in PBS, and lysed by freeze–thaw cycling. Samples were resolved by SDS-PAGE (15%), and a western blot assay was conducted. Membranes were incubated (1 h, RT) with rabbit anti-T. gondii γH2A.X (1:500) ([Contreras et al., 2021]) and murine anti-SAG1 (Novus Biologicals, 1:500). Finally, they were washed several times with PBS-T and incubated with alkaline phosphatase-conjugated anti-rabbit or anti-mouse secondary antibodies, diluted to 1:4,000 (Santa Cruz Biotechnology). Immunoreactive protein bands were visualized by the NBT-BCIP (Promega) method. Densitometric analysis of scanned images was performed using the Image-Pro Plus software.

[6] = test system: T. gondii RH Δhxgprt tachyzoites; test: Invasion assay, pretreated extracellular tachyzoites; format: cell-based, Toxoplasma gondii; conditions: extracellular tachyzoites preincubated 1 h, 0 up to ∼50 μM, Vero cells
Procedure: Extracellular tachyzoites of RH Δhxgprt strain (2 × 10^6) were preincubated for 1 h (at 37°C and 5% CO2) with different doses of the assayed compounds (up to 40–50 μM) or the vehicle (DMSO) diluted in supplemented DMEM. Parasites were, then, centrifuged, resuspended in supplemented DMEM, and were allowed to invade Vero cell monolayers grown on coverslips in 24-well plates by incubation for 10 min on ice followed by 1 h at 37°C. Invasion assay was performed as described elsewhere ([Yañuk et al., 2017]). To facilitate counting, cells were analyzed by indirect immunofluorescence assay (IFA). Immunostaining was performed using anti-SAG1 mouse monoclonal (Novus Biologicals, 1:50)/goat anti-mouse Alexa Fluor 488 (Invitrogen, 1:4,000) antibodies. Fifty random fields per sample, with a similar number of host cells, were analyzed under microscope (Zeiss Axio Observer Colibri 7, magnification × 63). The number of parasitophorous vacuoles per field (PV/field) was counted. Data are presented as means of PV/field ± SEM. Two independent experiments were performed in duplicates.

[7] = test system: T. gondii RH Δhxgprt tachyzoites; test: Plaque reduction assay; format: cell-based, Toxoplasma gondii
Procedure: Monolayers of hTERT fibroblasts grown into 24-well plates were infected with 1 × 10^4 tachyzoites per well of the RH Δhxgprt strain. Then, they were washed with PBS and treated with different concentrations of 3 or the vehicle (DMSO) diluted in supplemented DMEM. After 6.5 days of incubation, monolayers were washed, fixed with ethanol (70% v/v), and stained with crystal violet (Sigma). The IC50 value was obtained by nonlinear regression analysis of the number of plaques vs log[3] (variable Hill’s slope). The area of the plaques was analyzed by ImageJ software.

[8] = MTT cytotoxicity on hTERT fibroblasts, 4 days; format: cell-based, human; conditions: human, MTT, 4 days of incubation (Table 1 footnote b)
Procedure: (§1) The same assay was performed for hTERT fibroblasts, incubated for 4 days with different concentrations of 3. Absorbance was read at 540 nm (reference wavelength: 700 nm) in a plate reader (Synergy H1 Hybrid Reader, BioTek). Average absorbance from background wells (without cells, treated as the samples) was subtracted out, to obtain corrected values (A540 corr). The percentage of cell viability was calculated as follows:
(§2) Cellviability(%)=A540corrtreatedcells/A540corruntreatedcells×100
(§3) CC50 values were obtained by nonlinear regression analysis of cell viability (%) vs. log[compound] with a variable Hill’s slope, using the GraphPad Prism 5.03 software. Each concentration was assayed in triplicates, in three independent sets of experiments. To avoid effects of evaporation, outer wells were not used.

hTERT fibroblasts = test: MTT cytotoxicity on hTERT fibroblasts, 4 days; format: cell-based, human; conditions: 10 μM, 4 days
Procedure: as §1, §2, §3

human topoisomerase II = test system: human topoisomerase II; parameters: method as in Cao et al., 2005; conditions: 600 μM; ref Cao et al., 2005; cited from earlier work
in vitro = conditions: African green monkey (Cercopithecus aethiops)
[9] = test system: T. gondii RH Δhxgprt tachyzoites; parameters: method as in Alomar et al. (2013); conditions: extracellular tachyzoites preincubated 1 h, 0 up to ∼50 μM, Vero cells; ref Alomar et al. (2013); cited from earlier work
[10] = test system: T. gondii RH Δhxgprt tachyzoites; parameters: method as in Alomar et al. (2013); conditions: 1-h-pretreated extracellular tachyzoites, 25–40 μM, 1 day of incubation; ref Alomar et al. (2013); cited from earlier work
host cells = test system: host cells; parameters: method as in not given; conditions: Table 1 footnote c, footnote text not given; ref not given; cited from earlier work
[11] = 72 h, RH RFP strain in hTERT fibroblasts, 3 d.p.i. (Table 1 footnote d), read-out: IC50 (converted)

Structure (SMILES) | IC50 (T. gondii RH strain; Table 1 footnote g) | CC50 at 2 days ([1]; Vero cells (monolayers)) | IC50 [2, 11] | effect on tachyzoite cell cycle (DNA content, G1 vs S/M) [3] | inhibition of topoisomerase I activity (topoisomerase I; 50 μM) | inhibition of topoisomerase I activity (topoisomerase I; 150 μM) | CC50 (Vero cells) | increase of % PV with one parasite (% PV (1P)) vs control [5] | % PV (1P) [5] | γH2A.X levels (T. gondii γH2A.X) | effect on invasion process (PV/field) [6] | selectivity index (SI) [2] | effect on tachyzoite growth ([2]; RH RFP in hTERT fibroblasts) | CC50 at 4 days [8] | inhibition of human topoisomerase II (human topoisomerase II) | other results
Nc1ccc(S(=O)(=O)Nc2ncccn2)cc1 [SDZ, sulfadiazine, reference compound] | 2400 to 2800 µM | > 500 µM | ~500 µM |  |  |  |  |  |  |  |  |  |  |  |  | IC50 (T. gondii RH strain; Table 1 footnote h): 308 µM; decrease in RFU values with respect to untreated controls ([2]; SDZ 250 and 500 μM, RH RFP in hTERT fibroblasts): ~50%
COc1ccc2c3ccnc(C)c3n(C)c2c1 [Compound 3, 9-methyl-harmine] |  | ~60 µM | 1.6 ± 0.2 µM | arrest in S/M phases; also recorded: significant enrichment in tachyzoite DNA content compatible with S/M phases | strongly decreases | inhibited | 59 ± 8 µM | fivefold | 78% | decreased basal levels | negligible or rather low effect | 17.2 | strong growth inhibition | 31 µM | do not inhibit | overall binding constant to ctDNA (ctDNA; ref Vignoni et al., 2014): 16.8 ± 0.5 × 10^3 M^–1 in bp; growth recovery after drug removal ([4]; 1.7 and 2 days of treatment, 7.5 μM): significant reduction of tachyzoite growth; growth recovery after drug removal ([4]; 1.7 and 2 days of treatment, 10 μM): total growth inhibition; growth recovery after drug removal ([4]; 0.7 days of treatment, 5, 7.5 and 10 μM): not effective; parasite growth under continuous treatment ([4]; continuous treatment up to 15 days, 5, 7.5 and 10 μM): complete inhibition of parasite growth; γH2A.X levels when co-administered with CPT (T. gondii γH2A.X; 3 7.5 μM plus CPT 10 μM): reduced them significantly; parasite growth in plaque assay ([7]; 7.5 μM, 6.5 days, RH Δhxgprt): no parasite growth; IC50 ([7]; Toxoplasma gondii, Fibroblast, 156 h, read-out: IC50 (number of plaques)): 3.1 µM; IC50 ([2]; 96 h, RH RFP strain in hTERT fibroblasts, 4 d.p.i. (Table 1 footnote e), read-out: IC50 (converted)): 1.8 µM; impact on fibroblast metabolism (MTT) (hTERT fibroblasts): no impact
COc1ccc2c(c1)[nH]c1c(C)[n+](C)ccc12 [Compound 2, 2-methyl-harminium] |  |  | > 10 µM | arrest in S/M phases; also recorded: significant enrichment in tachyzoite DNA content compatible with S/M phases |  |  |  | around fourfold | 68% |  | negligible or rather low effect |  | no major impact |  |  | overall binding constant to ctDNA (ctDNA; ref Denofrio et al., 2020): 5.9 ± 0.3 × 10^3 M^–1 in bp; CC50 at 2 days (in vitro): > 500 µM
COc1ccc2c(c1)[nH]c1c(C)nccc12 [Compound 1, harmine] |  |  |  | negligible or null effect | strongly decreases | inhibited | 57 ± 4 µM |  | 65% |  |  | <5 | no major impact | 49 µM | do not inhibit | effect on invasion process (PV/field) [9]: inhibited; change in % PV with two parasites (% PV (2P)) vs control [10]: sharp increase; overall binding constant to ctDNA (ctDNA; ref Yañuk et al., 2018): 7.7 ± 0.2 × 10^3 M^–1 in bp; CC50 at 2 days [1]: ~60 µM; IC50 ([2]; 72 h): > 10 µM; IC50 ([2]; 96 h): > 10 µM
CCc1nc(N)nc(N)c1-c1ccc(Cl)cc1 [Pyrimethamine, pyrimethamine] | 0.8 µM |  |  |  |  |  |  |  |  |  |  |  |  |  |  | IC50 (T. gondii RH strain; reported on RH strain, Table 1 footnote c): 3.4 µM; CC50 (host cells): > 40.2 µM
CC[C@@]1(O)C(=O)OCc2c1cc1n(c2=O)Cc2cc3ccccc3nc2-1 [CPT, camptothecin, reference compound] |  |  |  |  |  |  |  |  |  | notable increase |  |  |  |  |  | 
